Target: T1, human wild-type (WT)-pendrin (Homo sapiens, UniProt O43511)
T1 construct: expressed in transfected cells
T1 sequence (O43511 1-780): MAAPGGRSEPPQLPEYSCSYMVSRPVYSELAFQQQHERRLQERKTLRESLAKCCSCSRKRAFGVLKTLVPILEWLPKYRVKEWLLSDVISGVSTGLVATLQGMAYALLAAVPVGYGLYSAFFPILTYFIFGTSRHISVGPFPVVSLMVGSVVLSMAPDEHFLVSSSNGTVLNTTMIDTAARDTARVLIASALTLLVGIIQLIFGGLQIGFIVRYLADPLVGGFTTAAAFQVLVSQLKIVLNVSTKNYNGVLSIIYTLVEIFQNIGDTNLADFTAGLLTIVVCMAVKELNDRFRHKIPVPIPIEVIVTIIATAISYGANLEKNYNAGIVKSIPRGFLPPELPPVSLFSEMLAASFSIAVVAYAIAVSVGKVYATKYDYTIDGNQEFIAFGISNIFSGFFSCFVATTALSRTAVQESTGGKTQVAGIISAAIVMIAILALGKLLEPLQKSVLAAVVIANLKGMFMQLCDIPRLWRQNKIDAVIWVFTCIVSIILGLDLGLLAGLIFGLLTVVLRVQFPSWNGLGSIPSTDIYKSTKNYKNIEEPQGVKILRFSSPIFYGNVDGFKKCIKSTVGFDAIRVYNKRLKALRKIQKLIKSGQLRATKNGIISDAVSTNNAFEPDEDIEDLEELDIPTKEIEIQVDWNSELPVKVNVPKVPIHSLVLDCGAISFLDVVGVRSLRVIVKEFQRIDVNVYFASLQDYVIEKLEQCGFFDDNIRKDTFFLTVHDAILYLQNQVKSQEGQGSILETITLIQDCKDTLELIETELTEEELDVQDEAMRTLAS
Assay: Pendrin-mediated Cl^−/I^− exchange activity, YFP fluorescence in CHO-K1 cells
Assay type: cell-based
Settings: for inhibition at 30 µM: CHO-K1, 30 μM, read-out: Pendrin inhibitory activity at 30 μM (%); for IC50: compounds showing pendrin inhibitory activity of 50% or more at 30 μM, read-out: IC50
Protocol: Chinese hamster ovary (CHO)-K1 cells were maintained in a DMEM medium containing 10% fetal bovine serum (FBS), 100 units/ml penicillin and 100 100 μg/ml streptomycin. CHO-K1 cells were stably transfected with pcDNA3.1 encoding halide sensor YFP-H148Q/I152L/F46L and human wild-type (WT)-pendrin. For distribution of primary culture of human nasal cavity epithelium (HNE) cells, passage-2 cells were seeded into transwell-transparent culture inserts with a pore size of 0.45 μm (Costar Co., Cambridge, MA) at a density of 2×10^5 cells/cm^2. The cells were maintained in a 1:1 mixture of Dulbecco's modified Eagle's medium (Lonza, Walkersville, MD) and bronchial epithelial growth medium (Lonza) supplemented with the following growth factors according to the manufacturer's instructions. After immersing the cells for the first 7 days, they were exposed to the apical air interface for the remainder of the culture period. After establishment of the air-liquid interface, the cells were used between 14 and 21 days. At all stages of culture, the cells were maintained at 37° C. under 5% CO2 in an air incubator.
CHO-K1 cells expressing human WT pendrin and YFP-F46L/H148Q/I152L were plated on a 96-well microplate at a density of 2×10^4 cells per well and cultured for 48 hours. Each well of the cell cultured 96-well plate was washed with PBS of 200 μL twice and was filled with HEPES buffer solution of 50 μL, respectively. […] After culturing at 37° C. for 10 minutes, the 96-well plate was positioned on FLUOstar Omega microplate reader (BMG Labtech, Ortenberg, Germany) for fluorescence analysis. By continuously (400 ms per point) recording fluorescence for 1 second (base line), each well was individually analyzed for pendrin-mediated I^− inflow, and then at 1 second, 50 μL of NaI-substituted HEPES buffer solution (NaI replacing NaCl) was added using a liquid injector and the YFP fluorescence was recorded for 5 seconds. The initial iodide inflow rate was determined from the initial slope of fluorescence by nonlinear regression, after injection the iodide (See FIG. 1).
For measurement of Cl^−/I^− exchange activity, YFP fluorescence was measured in pendrin and halide sensor YFP expressing CHO-K1 cells. Each well of the cell cultured 96-well plate was washed with PBS of 200 μL twice, and was filled with HEPES buffer solution (140 mM NaCl, 5 mM KCl, 1 mM MgCl2, 1 mM CaCl2, 10 mM glucose and 10 mM HEPES (pH 7.4)), respectively. […] After culturing at 37° C. for 10 minutes, the 96-well plate was positioned on FLUOstar Omega microplate reader (BMG Labtech, Ortenberg, Germany) for fluorescence analysis.
By continuously (400 ms per point) recording fluorescence for 1 second (base line), each well was individually analyzed for pendrin-mediated I^− inflow, and then at 1 second, 50 μL of NaI-substituted HEPES buffer solution (140 mM NaI, 5 mM KCl, 1 mM MgCl2, 1 mM CaCl2, 10 mM glucose and 10 mM HEPES (pH 7.4)) was added using a liquid injector and the YFP fluorescence was recorded for 5 seconds. The initial iodide inflow rate was determined from the initial slope of fluorescence by nonlinear regression, after injection the iodide.

Row | SMILES | inhibition at 30 µM [%] | IC50 [µM]
1 | O=C1OC(c2ccc(C(F)(F)F)cc2)=NC1=Cc1cccs1 [F1, 4-(thiophen-2-ylmethylene)-2-(4-(trifluoromethyl)phenyl)oxazol-5 (4H)-one] | 2.6 | 
2 | CC(C)(C)c1ccc(C2=NC(=Cc3cncs3)C(=O)O2)cc1 [F2, 2-(4-(tert-butyl)phenyl)-4-(thiazol-5-ylmethylene)oxazol-5(4H)-one] | 57.5 | 26.9 ± 2.95
3 | Cc1[nH]c2ccccc2c1C=C1N=C(c2ccc(C(C)(C)C)cc2)OC1=O [F3, 2-(4-(tert-butyl)phenyl)-4-((2-methyl-1H-indol-3-yl1)methylene)oxazol-5(4H)-one] | 4.3 | 
4 | CC(C)(C)OC(=O)n1cc(C=C2N=C(c3ccc(C(C)(C)C)cc3)OC2=O)c2ccccc21 [F4, tert-butyl 3-((2-(4-(tert-butyl)phenyl)-5-oxooxazol-4(5H)-ylidene)methyl)-1H-indol-1-carboxylate] | 2.6 | 
5 | N#Cc1ccc(C2=NC(=Cc3cccs3)C(=O)O2)cc1 [F5, 4-(5-Oxo-4-(thiophen-2-ylmethylene)-4,5-dihydrooxazol-2-yl)benzonitrile] | 3.5 | 
6 | Cn1cccc1C=C1N=C(c2ccc(C(C)(C)C)cc2)OC1=O [F6, 2-(4-(tert-butyl)phenyl)-4-((1-methyl-1H-pyrrol-2-yl)methylene)oxazol-5 (4H)-one] | 3.7 | 
7 | COC(=O)c1ccc(C2=NC(=Cc3cccs3)C(=O)O2)cc1 [F7, Methyl 4-(5-oxo-4-(thiophen-2-ylmethylene)-4,5-dihydrooxazol-2-yl)benzoate] | 2.8 | 
8 | Cc1ncsc1C=C1N=C(c2ccc(C(C)(C)C)cc2)OC1=O [F8, 2-(4-(tert-butyl)phenyl)-4-((4-methylthiazol-5-yl)methylene)oxazol-5 (4H)-one] | 72.5 | 20.5 ± 1.69
9 | CC(C)(C)c1ccc(C2=NC(=Cc3ccsc3)C(=O)O2)cc1 [F9, 2-(4-(tert-butyl)phenyl)-4-(thiophen-3-ylmethylene)oxazol-5 (4H)-one] | 52.5 | 28.7 ± 2.25
10 | CC(C)(C)c1ccc(C2=NC(=Cc3cc4ccccc4s3)C(=O)O2)cc1 [F11, 4-(Benzo[b]thiophen-2-ylmethylene)-2-(4-(tert-butyl)phenyl)oxazol-5 (4H)-one] | 3.6 | 
11 | CC(C)c1ccc(C2=NC(=Cc3ccc[nH]3)C(=O)O2)cc1 [F12, 4-((1H-pyrrol-2-yl)methylene)-2-(4-isopropylphenyl)oxazol-5(4H)-one] | 100 | 1 ± 0.15
12 | CC(C)(C)c1ccc(C2=NC(=Cc3ccnc4ccccc34)C(=O)O2)cc1 [F13, 2-(4-(tert-butyl)phenyl)-4-(quinolin-4-ylmethylene)oxazol-5 (4H)-one] | 3.8 | 
13 | CC(C)Cc1ccc(C2=NC(=Cc3cccs3)C(=O)O2)cc1 [F14, 2-(4-Isobutylphenyl)-4-(thiophen-2-ylmethylene)oxazol-5 (4H)-one] | 33.1 | 
14 | CC(C)Cc1ccc(C2=NC(=Cc3ccsc3)C(=O)O2)cc1 [F15, 2-(4-Isobutylphenyl)-4-(thiophen-3-ylmethylene)oxazol-5 (4H)-one] | 3.8 | 
15 | CC(C)c1ccc(C2=NC(=Cc3csc4ccccc34)C(=O)O2)cc1 [F16, 4-(Benzo[b]thiophen-3-ylmethylene)-2-(4-isopropylphenyl)oxazol-5(4H)-one] | 3.1 | 
16 | O=C1OC(c2ccc(C(F)(F)F)cc2)=NC1=Cc1ccc[nH]1 [F17, 4-((1H-pyrrol-2-yl)methylene)-2-(4-(trifluoromethyl)phenyl)oxazol-5(4H)-one] | 6.9 | 

Second part, the compound after the results:

Row | inhibition at 30 µM [%] | IC50 [µM] | SMILES
17 | 3.4 |  | O=C1OC(c2ccc(C(F)(F)F)cc2)=NC1=Cc1ccsc1 [F18, 4-(Thiophen-3-ylmethylene)-2-(4-(trifluoromethyl)phenyl)oxazol-5(4H)-one]
18 | 54.8 | 20.1 ± 2.46 | CC(C)Cc1ccc(C2=NC(=Cc3ccco3)C(=O)O2)cc1 [F19, 4-(Furan-2-ylmethylene)-2-(4-isobutylphenyl)oxazol-5 (4H)-one]
19 | 82.9 | 2.8 ± 0.26 | CC(C)Cc1ccc(C2=NC(=Cc3ccc[nH]3)C(=O)O2)cc1 [F20, 4-((1H-pyrrol-2-yl)methylene)-2-(4-isobutylphenyl)oxazol-5 (4H)-one]
20 | 2.9 |  | CC(C)Cc1ccc(C2=NC(=Cc3csc4ccccc34)C(=O)O2)cc1 [F21, 4-(Benzo[b]thiophen-3-ylmethylene)-2-(4-isobutylphenyl)oxazol-5(4H)-one]
21 | 2.4 |  | Cc1ncsc1C=C1N=C(c2ccc(Br)cc2)OC1=O [F22, 2-(4-Bromophenyl)-4-((4-methylthiazol-5-yl)methylene)oxazol-5(4H)-one]
22 | 2.1 |  | O=C1OC(C2CCCCC2)=NC1=Cc1cccs1 [F23, 2-Cyclohexyl-4-(thiophen-2-ylmethylene)oxazol-5 (4H)-one]
23 | 3.6 |  | Cc1ncsc1C=C1N=C(c2ccc(-c3ccccc3)cc2)OC1=O [F24, 2-([1,1′-biphenyl]-4-yl)-4-((4-methylthiazol-5-yl)methylene)oxazol-5 (4H)-one]
24 | 3.8 |  | O=C1OC(Cc2ccc(-c3ccccc3)cc2)=NC1=Cc1ccc[nH]1 [F25, 4-((1H-pyrrol-2-yl)methylene)-2-([1,1′-biphenyl]-4-ylmethyl)oxazol-5(4H)-one]
25 | 69.9 | 12.8 ± 1.55 | CCCCc1ccc(C2=NC(=Cc3ccc[nH]3)C(=O)O2)cc1 [F26, 4-((1H-pyrrol-2-yl)methylene)-2-(4-butylphenyl)oxazol-5(4H)-one]
26 | 2.8 |  | CC(C)(C)c1ccc(C2=NC(=Cc3cccn3-c3ccccc3)C(=O)O2)cc1 [F27, 2-(4-(tert-butyl)phenyl)-4-((1-phenyl-1H-pyrrol-2-yl)methylene)oxazol-5 (4H)-one]
27 | 2.2 |  | O=C1OC(Cc2ccc(-c3ccccc3)cc2)=NC1=Cc1cccs1 [F28, 2-([1,1′-biphenyl]-4-ylmethyl)-4-(thiophen-2-ylmethylene)oxazol-5 (4H)-one]
28 | 3.3 |  | O=C1OC(c2ccc3c(c2)CCC3)=NC1=Cc1cccs1 [F29, 2-(2,3-dihydro-1H-indene-5-yl)-4-(thiophen-2-ylmethylene)oxazol-5 (4H)-one]
29 | 3.9 |  | O=C1OC(c2cccc3ccccc23)=NC1=Cc1ccc[nH]1 [F30, 4-((1H-pyrrol-2-yl)methylene)-2-(naphthalen-1-yl)oxazol-5(4H)-one]
30 | 4.2 |  | COC(=O)c1ccc(C2=NC(=Cc3ccco3)C(=O)O2)cc1 [F31, Methyl 4-(4-(furan-2-ylmethylene)-5-oxo-4,5-dihydrooxazol-2-yl)benzoate]
31 | 3.7 |  | COC(=O)c1ccc(C2=NC(=Cc3ccsc3)C(=O)O2)cc1 [F32, Methyl 4-(5-oxo-4-(thiophen-3-ylmethylene)-4,5-dihydrooxazol-2-yl)benzoate]
